Results as given in patent US20240209028A1, “CNP COMPOUNDS” (priority 2022, published 2024).
Starred links: 1 amine or outer side, 2 acyl side, 3 side chain; linkers in the order of their positions; H or OH if unused. Positions of bridges follow the written chain, without caps; N, C: chain ends. Residues, ends and D or L forms follow the SMILES beside them. *: point of attachment. C18 diacid = O=C(O)CCCCCCCCCCCCCCCCC(=O)*; γGlu = O=C(O)[C@H](CCC(=O)[*:2])N[*:1]; AEEA = NCCOCCOCC(=O)O

What follows are compounds tested against T1, human natriuretic peptide receptor 2 (hNPR2) (Homo sapiens, UniProt P20594) (assay: In vitro hNPR2 activity assay (cGMP GloSensor reporter, HEK293)). Conditions: potency relative to CNP22 (0065).
T1 construct: expressed in transfected cells; host or cells: HEK293 (ATCC CRL-1573), clone 35, co-transfected with pGloSensor-42F
T1 sequence (P20594 23-1047): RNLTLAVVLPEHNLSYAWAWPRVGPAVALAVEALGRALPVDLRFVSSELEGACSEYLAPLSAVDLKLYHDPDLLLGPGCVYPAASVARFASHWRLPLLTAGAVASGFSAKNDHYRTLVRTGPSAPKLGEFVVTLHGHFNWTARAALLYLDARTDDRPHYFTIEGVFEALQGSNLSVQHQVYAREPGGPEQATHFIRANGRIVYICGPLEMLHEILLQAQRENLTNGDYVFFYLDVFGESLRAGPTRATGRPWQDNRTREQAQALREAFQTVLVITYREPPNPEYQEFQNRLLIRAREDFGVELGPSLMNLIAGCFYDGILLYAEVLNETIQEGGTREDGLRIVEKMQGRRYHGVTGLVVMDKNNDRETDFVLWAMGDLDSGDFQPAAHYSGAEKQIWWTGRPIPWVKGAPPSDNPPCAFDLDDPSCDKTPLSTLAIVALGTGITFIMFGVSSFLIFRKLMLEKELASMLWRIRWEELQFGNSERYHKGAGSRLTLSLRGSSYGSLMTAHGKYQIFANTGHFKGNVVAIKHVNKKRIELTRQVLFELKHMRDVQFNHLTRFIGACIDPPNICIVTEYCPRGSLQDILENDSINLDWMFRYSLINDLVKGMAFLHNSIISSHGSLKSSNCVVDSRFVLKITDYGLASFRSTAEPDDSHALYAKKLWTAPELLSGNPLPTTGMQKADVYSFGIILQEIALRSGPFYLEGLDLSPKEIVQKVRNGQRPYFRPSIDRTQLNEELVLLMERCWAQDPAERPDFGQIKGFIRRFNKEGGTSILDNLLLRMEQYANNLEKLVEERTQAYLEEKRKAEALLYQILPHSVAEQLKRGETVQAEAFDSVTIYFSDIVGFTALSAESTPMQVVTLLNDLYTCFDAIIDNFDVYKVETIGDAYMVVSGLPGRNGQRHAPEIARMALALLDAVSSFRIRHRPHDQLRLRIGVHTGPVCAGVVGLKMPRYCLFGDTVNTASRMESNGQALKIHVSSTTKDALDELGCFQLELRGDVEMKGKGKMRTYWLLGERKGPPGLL
Assay type: cell-based
Outline: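 Potency is the EC50 from a four-parameter logistic fit, also expressed relative to the in-plate CNP22 control (×100), with at least two replicates. Compounds (ten concentrations, […], HSA-free diluent with 1% OVA, 0.01% Tween20) were incubated 30 min at 37 °C on HEK293 cells co-expressing hNPR2 and a GloSensor cGMP luciferase. Luminescence detected with Bright-Glo.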

| SMILES | hNPR2 0% HSA. [EC50% rel CNP] |
| --- | --- |
| CC[C@H](C)[C@@H]1NC(=O)[C@H](CCCNC(=N)N)NC(=O)[C@H](CC(=O)O)NC(=O)[C@H](CC(C)C)NC(=O)[C@@H]2CCCN2C(=O)[C@H](CC(C)C)NC(=O)CNC(=O)[C@H](Cc2ccccc2)NC(=O)[C@@H](NC(=O)CNC(=O)[C@H](Cc2c[nH]cn2)NC(=O)[C@H](CO)NC(=O)CNC(=O)CNC(=O)[C@H](CCCCN)NC(=O)[C@H](CCCCN)NC(=O)[C@H](CCC(N)=O)NC(=O)[C@H](C)NC(=O)CNC(=O)[C@H](CCC(=O)O)NC(=O)[C@H](Cc2ccc(O)cc2)NC(=O)COCCOCCNC(=O)COCCOCCNC(=O)COCCOCCNC(=O)COCCOCCNC(=O)CC[C@H](NC(=O)CCCCCCCCCCCCCCCCC(=O)O)C(=O)O)CSSC[C@@H](C(=O)O)NC(=O)CNC(=O)[C@H](CC(C)C)NC(=O)CNC(=O)[C@H](CO)NC(=O)[C@H](CC(C)C)NC(=O)[C@H](CO)NC(=O)CNC1=O [compound 1431] ({C18 diacid-γGlu-AEEA-AEEA-AEEA-AEEA}-YEGAQKKGGSHGCFGLPLDRIGSLSGLGC-OH; disulfide 13-29; C-terminus assumed) | 14.3% |
| CC[C@H](C)[C@@H]1NC(=O)[C@H](CCCNC(=N)N)NC(=O)[C@H](CC(=O)O)NC(=O)[C@H](CC(C)C)NC(=O)[C@@H]2CCCN2C(=O)[C@H](CC(C)C)NC(=O)CNC(=O)[C@H](Cc2ccccc2)NC(=O)[C@@H](NC(=O)CNC(=O)[C@H](CCC(N)=O)NC(=O)[C@H](CO)NC(=O)[C@@H](NC(=O)CNC(=O)[C@H](CCCCN)NC(=O)[C@H](CCCCN)NC(=O)[C@H](CCC(N)=O)NC(=O)[C@H](C)NC(=O)CNC(=O)[C@H](CCCCN)NC(=O)[C@H](Cc2ccc(O)cc2)NC(=O)COCCOCCNC(=O)COCCOCCNC(=O)COCCOCCNC(=O)COCCOCCNC(=O)CC[C@H](NC(=O)CC[C@H](NC(=O)CCCCCCCCCCCCCCCCC(=O)O)C(=O)O)C(=O)O)C(C)C)CSSC[C@@H](C(=O)O)NC(=O)CNC(=O)[C@H](CC(C)C)NC(=O)CNC(=O)[C@H](CO)NC(=O)[C@H](CC(C)C)NC(=O)[C@H](CO)NC(=O)CNC1=O [compound 1436] ({C18 diacid-γGlu-γGlu-AEEA-AEEA-AEEA-AEEA}-YKGAQKKGVSQGCFGLPLDRIGSLSGLGC-OH; disulfide 13-29; C-terminus assumed) | 30.2% |
| CC[C@H](C)[C@@H]1NC(=O)[C@H](CCCNC(=N)N)NC(=O)[C@H](CC(=O)O)NC(=O)[C@H](CC(C)C)NC(=O)[C@@H]2CCCN2C(=O)[C@H](CC(C)C)NC(=O)CNC(=O)[C@H](Cc2ccccc2)NC(=O)[C@@H](NC(=O)CNC(=O)[C@H](CCC(N)=O)NC(=O)[C@H](CO)NC(=O)[C@@H](NC(=O)CNC(=O)[C@H](CCCCN)NC(=O)[C@H](CCCCN)NC(=O)[C@H](CCC(N)=O)NC(=O)[C@H](C)NC(=O)CNC(=O)[C@H](Cc2c[nH]cn2)NC(=O)[C@H](Cc2ccc(O)cc2)NC(=O)COCCOCCNC(=O)COCCOCCNC(=O)COCCOCCNC(=O)COCCOCCNC(=O)CC[C@H](NC(=O)CC[C@H](NC(=O)CCCCCCCCCCCCCCCCC(=O)O)C(=O)O)C(=O)O)C(C)C)CSSC[C@@H](C(=O)O)NC(=O)CNC(=O)[C@H](CC(C)C)NC(=O)CNC(=O)[C@H](CO)NC(=O)[C@H](CC(C)C)NC(=O)[C@H](CO)NC(=O)CNC1=O [compound 1437] ({C18 diacid-γGlu-γGlu-AEEA-AEEA-AEEA-AEEA}-YHGAQKKGVSQGCFGLPLDRIGSLSGLGC-OH; disulfide 13-29) | 19.9% |
| CC[C@H](C)[C@@H]1NC(=O)[C@H](CCCNC(=N)N)NC(=O)[C@H](CC(=O)O)NC(=O)[C@H](CC(C)C)NC(=O)[C@@H]2CCCN2C(=O)[C@H](CC(C)C)NC(=O)CNC(=O)[C@H](Cc2ccccc2)NC(=O)[C@@H](NC(=O)CNC(=O)[C@H](CCCCN)NC(=O)[C@H](CO)NC(=O)[C@H](CC(C)C)NC(=O)CNC(=O)[C@H](CCCCN)NC(=O)[C@H](CCCCN)NC(=O)[C@H](CCC(N)=O)NC(=O)[C@H](C)NC(=O)CNC(=O)[C@H](CCC(=O)O)NC(=O)[C@H](Cc2ccc(O)cc2)NC(=O)[C@H](CCCCN)NC(=O)[C@H](CCCNC(=N)N)NC(=O)[C@H](C)NC(=O)[C@H](CCC(N)=O)NC(=O)[C@@H]2CCCN2C(=O)[C@H](Cc2c[nH]cn2)NC(=O)[C@H](CCC(=O)O)NC(=O)[C@H](CCC(N)=O)NC(=O)CC[C@H](NC(=O)CC[C@H](NC(=O)CC[C@H](NC(=O)CC[C@H](NC(=O)CCCCCCCCCCCCCCCCC(=O)O)C(=O)O)C(=O)O)C(=O)O)C(=O)O)CSSC[C@@H](C(=O)O)NC(=O)CNC(=O)[C@H](CC(C)C)NC(=O)CNC(=O)[C@H](CO)NC(=O)[C@H](CC(C)C)NC(=O)[C@H](CO)NC(=O)CNC1=O [compound 1448] ({C18 diacid-γGlu-γGlu-γGlu-γGlu}-QEHPQARKYEGAQKKGLSKGCFGLPLDRIGSLSGLGC-OH; disulfide 21-37) | 33.3% |
| CC[C@H](C)[C@@H]1NC(=O)[C@H](CCCNC(=N)N)NC(=O)[C@H](CC(=O)O)NC(=O)[C@H](CC(C)C)NC(=O)[C@@H]2CCCN2C(=O)[C@H](CC(C)C)NC(=O)CNC(=O)[C@H](Cc2ccccc2)NC(=O)[C@@H](NC(=O)CNC(=O)[C@H](CO)NC(=O)[C@H](CO)NC(=O)[C@@H](NC(=O)CNC(=O)[C@@H](NC(=O)[C@H](Cc2c[nH]cn2)NC(=O)[C@H](CCC(N)=O)NC(=O)[C@H](C)NC(=O)CNC(=O)[C@H](Cc2c[nH]cn2)NC(=O)[C@H](Cc2ccc(O)cc2)NC(=O)[C@H](CCCCN)NC(=O)[C@H](CCCNC(=N)N)NC(=O)[C@H](C)NC(=O)COCCOCCNC(=O)COCCOCCNC(=O)CC[C@H](NC(=O)CC[C@H](NC(=O)CC[C@H](NC(=O)CCCCCCCCCCCCCCCCC(=O)O)C(=O)O)C(=O)O)C(=O)O)[C@@H](C)O)C(C)C)CSSC[C@@H](C(=O)O)NC(=O)CNC(=O)[C@H](CC(C)C)NC(=O)CNC(=O)[C@H](CO)NC(=O)[C@H](CC(C)C)NC(=O)[C@H](CO)NC(=O)CNC1=O [compound 1449] ({C18 diacid-γGlu-γGlu-γGlu-AEEA-AEEA}-ARKYHGAQHTGVSSGCFGLPLDRIGSLSGLGC-OH; disulfide 16-32; C-terminus assumed) | 110.0% |
| CC[C@H](C)[C@@H]1NC(=O)[C@H](CCCNC(=N)N)NC(=O)[C@H](CC(=O)O)NC(=O)[C@H](CC(C)C)NC(=O)[C@@H]2CCCN2C(=O)[C@H](CC(C)C)NC(=O)CNC(=O)[C@H](Cc2ccccc2)NC(=O)[C@@H](NC(=O)CNC(=O)[C@H](CO)NC(=O)[C@H](CO)NC(=O)[C@@H](NC(=O)CNC(=O)[C@@H](NC(=O)[C@H](CCCCN)NC(=O)[C@H](CCC(N)=O)NC(=O)[C@H](C)NC(=O)CNC(=O)[C@H](Cc2c[nH]cn2)NC(=O)[C@H](Cc2ccc(O)cc2)NC(=O)[C@H](CCCCN)NC(=O)[C@H](CCCNC(=N)N)NC(=O)[C@H](C)NC(=O)COCCOCCNC(=O)COCCOCCNC(=O)CC[C@H](NC(=O)CC[C@H](NC(=O)CC[C@H](NC(=O)CCCCCCCCCCCCCCCCC(=O)O)C(=O)O)C(=O)O)C(=O)O)[C@@H](C)O)C(C)C)CSSC[C@@H](C(=O)O)NC(=O)CNC(=O)[C@H](CC(C)C)NC(=O)CNC(=O)[C@H](CO)NC(=O)[C@H](CC(C)C)NC(=O)[C@H](CO)NC(=O)CNC1=O [compound 1450] ({C18 diacid-γGlu-γGlu-γGlu-AEEA-AEEA}-ARKYHGAQKTGVSSGCFGLPLDRIGSLSGLGC-OH; disulfide 16-32) | 84.2% |
| CC[C@H](C)[C@@H]1NC(=O)[C@H](CCCNC(=N)N)NC(=O)[C@H](CCC(=O)O)NC(=O)[C@H](CC(C)C)NC(=O)[C@@H]2CCCN2C(=O)[C@H](CC(C)C)NC(=O)CNC(=O)[C@H](Cc2ccccc2)NC(=O)[C@@H](NC(=O)CNC(=O)[C@H](CO)NC(=O)[C@H](CO)NC(=O)[C@@H](NC(=O)CNC(=O)[C@H](CCCCN)NC(=O)[C@H](CCCCN)NC(=O)[C@H](CCC(N)=O)NC(=O)[C@H](C)NC(=O)CNC(=O)[C@H](Cc2c[nH]cn2)NC(=O)[C@H](Cc2ccc(O)cc2)NC(=O)[C@H](CCCCN)NC(=O)[C@H](CCCNC(=N)N)NC(=O)[C@H](C)NC(=O)COCCOCCNC(=O)COCCOCCNC(=O)CC[C@H](NC(=O)CC[C@H](NC(=O)CC[C@H](NC(=O)CCCCCCCCCCCCCCCCC(=O)O)C(=O)O)C(=O)O)C(=O)O)C(C)C)CSSC[C@@H](C(=O)O)NC(=O)CNC(=O)[C@H](CC(C)C)NC(=O)CNC(=O)[C@H](CO)NC(=O)[C@H](CC(C)C)NC(=O)[C@H](CO)NC(=O)CNC1=O [compound 1451] ({C18 diacid-γGlu-γGlu-γGlu-AEEA-AEEA}-ARKYHGAQKKGVSSGCFGLPLERIGSLSGLGC-OH; disulfide 16-32) | 47.5% |
